Assay results taken from US20120148509A1, “COMPOSITION FOR ALLEVIATING ULTRAVIOLET IRRADIATION-INDUCED DAMAGE” (Shiseido Company, Ltd., priority 2009, published 2012).
Read-outs that look alike come from different tables or passages of the source.

How the values were obtained:
[1] = test system: human neonatal dermal fibroblast; conditions: for percentage of the viable cell: human, 24 h; for fluorescent intensity of Alamar Blue / effect on cell damage, in words: UV-A 9 J/cm^2, FIG. 4; for fluorescent intensity of Alamar Blue: without irradiation 794, negative control 140; for effect on cell damage, in words: pre-irradiation addition
Method: (§1) The cell employed was a commercially available human neonatal dermal fibroblast (Cryo NHDF-Neo, Sanko-Junyaku Co., Ltd.). This cell was inoculated at 2×10^5 cells/mL to a commercially available culture dish of 35 mm in diameter (BD FALCON 353001, Becton Dickinson Japan), where it was cultured in a commercially available cell culture medium (D-MEM (1 g/L glucose, Wako Pure Chemical Industries, Ltd.) supplemented with 10% fetal bovine serum (hereinafter, referred to as “normal medium”). The cell described above may be cultured in the normal medium described above supplemented with an antibiotic (15240-062, Gibco) at 1%. This cell was cultured for about 24 hours in a 5% CO2 and saturated water vapor atmosphere at 37° C. (degrees Celsius).
(§2) Thereafter, the culture medium for culturing the cell described above was switched to 1 mL of a BSO medium supplemented with a glutathione biosynthesis inhibitor BSO (L-buthionine-(S,R)-sulfoximine, Wako Pure Chemical Industries, Ltd.) at 1×10^−3%, where the culture was conducted for about 24 hours in a 5% CO2 and saturated water vapor atmosphere at 37° C. (degrees Celsius). The BSO medium described above was prepared by a 200-fold dilution of a stock solution containing 0.2% BSO dissolved in ethyl alcohol with the normal medium described above.
For determining the effect of adding methionine before ultraviolet irradiation (hereinafter, referred to as “pre-irradiation addition of methionine”), the culture medium was switched to a BSO medium added with 0.0001 to 100 (micro-molar) L-methionine (131-01603, Wako Pure Chemical Industries Ltd.) or D-methionine (2807, Peptide Institute Inc.) 24 hours before the irradiation. The ultraviolet irradiation after switching into a medium added with 0.1 μM (micro-molar) D-proline (165-14671, Wako Pure Chemical Industries Ltd.) was employed as a positive control, while the ultraviolet irradiation to the medium still being free of such an added amino acid was employed as a negative control.
(§3) […] was dissolved in a distilled water at 2×10^−3%, and the resultant solution was subjected to a 200-fold dilution (final concentration: 1×10^−5%) with a phosphate buffered saline PBS (+) containing calcium ion and magnesium ion to obtain a medium (hereinafter, referred to as “UV irradiation medium”), which was warmed preliminarily to 37° C. before use.
(§4) Before UV-A irradiation, the culture medium was replaced with 1 mL of the UV irradiation medium described above. […] The UV dose was measured using UV RADIOMETER UVR-3036/S (Topcon Corporation).
(§5) Thereafter, the culture medium was supplemented with Alamar Blue (trade mark, Biosource, Biosource International Inc. and Invitrogen) at a final concentration of […], and its supernatant was determined for the fluorescent intensity three hours later with an excitation wavelength of 544 nm and a fluorescent wavelength of 590 nm as described by Ahmed S. A. et al. J. Immunol. Method. 170, 211-224 (1994)) and in accordance with the manufacture's instruction. The percentage of the viable cell was obtained as a percentage of a quotient calculated by dividing the fluorescent intensity of Alamar Blue under each experimental condition by the fluorescent intensity in the negative control group containing no added amino acid.
(§6) the cell culture, the addition of amino acids before the UV irradiation, the UV irradiation, the addition of amino acids after the UV irradiation and the cell damage measurement were conducted similarly to Example 1. The ultraviolet light (UV-A) was irradiated at 7.5 or 9 J/cm^2.

[2] = test system: human neonatal dermal fibroblast; assay: UV-A irradiation-induced cell damage, amino acid added after irradiation (Alamar Blue); format: cell-based; conditions: for percentage of the viable cell: UV-A 8 J/cm^2, FIG. 3; for fluorescent intensity of Alamar Blue: without irradiation 764, negative control 348
Method: as §1, §2, §3, §4
After UV-A irradiation at 8 J/cm^2, the medium was returned to the normal medium described above, and the culture was conducted in a 5% CO2 and saturated water vapor atmosphere at 37° C. (degrees Celsius) for 40 hours. For determining the effect of adding methionine after UV irradiation (hereinafter, referred to as “post-irradiation addition of methionine”), this 40-hour cultured medium was added with 0.001 to 100 μM (micro-molar) L- or D-methionine. The ultraviolet irradiation after switching into a medium added with 0.1 μM (micro-molar) D-proline was employed as a positive control, while the ultraviolet irradiation to the medium still being free of such an added amino acid was employed as a negative control.
as §5, §6

[3] = post-irradiation addition 0.1 μM
[4] = pre-irradiation addition 0.1 μM
[5] = post-irradiation addition 0.1 μM, UV-A 7.5 J/cm^2, FIG. 6

Row | SMILES | percentage of the viable cell ([1]; 0.0001 μM) [%] | percentage of the viable cell ([1]; 0.01 μM) [%] | percentage of the viable cell ([1]; 1 μM) [%] | percentage of the viable cell ([1]; 10 μM) [%] | percentage of the viable cell ([1]; 100 μM) [%] | percentage of the viable cell [2, 3] [%] | fluorescent intensity of Alamar Blue [1, 4] | fluorescent intensity of Alamar Blue [2, 5] | fluorescent intensity of Alamar Blue ([1]; pre-irradiation addition 1 μM) | fluorescent intensity of Alamar Blue ([1]; pre-irradiation addition 10 μM) | effect on cell damage, in words [1] | also measured
1 | CSCC[C@@H](N)C(=O)O [D-methionine] | 50 | 102 | 97 | 114 | 76 | 84 | – | – | – | – | – | percentage of the viable cell ([2]; post-irradiation addition 0.01 μM): 93%; percentage of the viable cell ([2]; post-irradiation addition 1 μM): 82%; percentage of the viable cell ([2]; post-irradiation addition 10 μM): 81%; percentage of the viable cell ([2]; post-irradiation addition 100 μM): about 87%
2 | O=C(O)[C@H]1CCCN1 [D-proline, reference compound] | – | – | – | – | – | 82 | 610 | 579 | – | – | – | –
3 | N[C@H](CO)C(=O)O [D-serine] | 74 | 92 | – | 93 | – | – | 402 | 735 | 371 | 491 | statistically significant increase in the fluorescent intensity | fluorescent intensity of Alamar Blue ([1]; pre-irradiation addition 0.01 μM): 445; fluorescent intensity of Alamar Blue ([2]; post-irradiation addition 0.01 μM, UV-A 7.5 J/cm^2, FIG. 6): 697; fluorescent intensity of Alamar Blue ([2]; post-irradiation addition 1 μM, UV-A 7.5 J/cm^2, FIG. 6): 742; fluorescent intensity of Alamar Blue ([2]; post-irradiation addition 10 μM, UV-A 7.5 J/cm^2, FIG. 6): 664; fluorescent intensity of Alamar Blue ([2]; post-irradiation addition 100 μM, UV-A 7.5 J/cm^2, FIG. 6): 663; effect on cell damage, in words ([2]; post-irradiation addition, UV-A 7.5 J/cm^2, FIG. 6): statistically significant increase in the fluorescent intensity
4 | CSCC[C@H](N)C(=O)O [L-methionine] | – | 72 | 45 | 73 | 62 | – | – | – | – | – | – | percentage of the viable cell ([1]; 0.001 μM): 40%; percentage of the viable cell ([1]; 0.1 μM): 67%
5 | N[C@@H](CO)C(=O)O [L-serine, reference compound] | – | – | – | – | – | – | 265 | – | 227 | 270 | almost no reduction in the cell damage | –
